Assay results from BigSolDB 2.1.

solubility (mole fraction) (in PEGDME 250, 293.15 K) | solubility (mole fraction) (in PEGDME 250, 298.15 K) | solubility (mole fraction) (in PEGDME 250, 303.15 K) | solubility (mole fraction) (in PEGDME 250, 308.15 K) | solubility (mole fraction) (in PEGDME 250, 313.15 K) | solubility (mole fraction) (in water, 293.15 K) | solubility (mole fraction) (in water, 298.15 K) | solubility (mole fraction) (in water, 303.15 K) | solubility (mole fraction) (in water, 308.15 K) | solubility (mole fraction) (in water, 313.15 K) | Compound
0.15 | 0.174 | 0.196 | 0.216 | 0.236 | 0.00151 | 0.00201 | 0.0022 | 0.00288 | 0.00334 | CC(=O)Nc1ccc(O)cc1
0.347 | 0.382 | 0.415 | 0.45 | 0.486 | 0.000205 | 0.000251 | 0.000306 | 0.000372 | 0.00046 | O=C(O)c1ccccc1O
